Experiments:
Format in all cases: binding
SLK = target: T1, SLK (Homo sapiens, UniProt Q9H2G2); assay: KINOMEscan; details: read-out: % control activity remaining
T1 construct: purchased Eurofins DiscoverX KINOMEscan

PCTK1 = target: T2, PCTK1 (Homo sapiens, UniProt Q00536); assay: KINOMEscan; details: read-out: % control activity remaining
T2 construct: purchased Eurofins DiscoverX KINOMEscan

TBK1 = target: T3, TBK1 (Homo sapiens, UniProt Q9UHD2); assay: KINOMEscan; details: read-out: % control activity remaining
T3 construct: purchased Eurofins DiscoverX KINOMEscan
T3 sequence (Q9UHD2 1-729): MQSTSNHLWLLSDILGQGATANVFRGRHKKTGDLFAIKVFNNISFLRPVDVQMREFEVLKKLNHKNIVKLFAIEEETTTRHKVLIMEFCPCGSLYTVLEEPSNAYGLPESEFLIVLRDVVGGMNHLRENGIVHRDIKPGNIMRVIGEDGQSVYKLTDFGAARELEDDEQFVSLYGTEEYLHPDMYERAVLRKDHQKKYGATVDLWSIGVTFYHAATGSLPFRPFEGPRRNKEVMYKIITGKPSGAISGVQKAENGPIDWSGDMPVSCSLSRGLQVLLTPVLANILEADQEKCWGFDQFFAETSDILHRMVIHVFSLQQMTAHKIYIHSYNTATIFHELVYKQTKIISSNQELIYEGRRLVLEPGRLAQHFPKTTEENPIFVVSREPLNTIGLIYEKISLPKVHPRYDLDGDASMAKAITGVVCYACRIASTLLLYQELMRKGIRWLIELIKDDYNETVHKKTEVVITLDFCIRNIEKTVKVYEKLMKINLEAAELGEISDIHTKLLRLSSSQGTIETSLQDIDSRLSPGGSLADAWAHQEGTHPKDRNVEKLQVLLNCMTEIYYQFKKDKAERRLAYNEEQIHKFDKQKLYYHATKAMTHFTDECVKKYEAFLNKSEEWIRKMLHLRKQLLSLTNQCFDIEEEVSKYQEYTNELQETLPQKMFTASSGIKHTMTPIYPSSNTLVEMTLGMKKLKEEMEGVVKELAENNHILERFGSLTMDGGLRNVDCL

[1] = target: T4, RPS6KA4(Kin.Dom.2-C-terminal) (Homo sapiens, UniProt O75676); assay: KINOMEscan; details: read-out: % control activity remaining
T4 construct: RPS6KA4(Kin.Dom.2-C-terminal); purchased Eurofins DiscoverX KINOMEscan
T4 sequence (O75676 411-674 limits assumed): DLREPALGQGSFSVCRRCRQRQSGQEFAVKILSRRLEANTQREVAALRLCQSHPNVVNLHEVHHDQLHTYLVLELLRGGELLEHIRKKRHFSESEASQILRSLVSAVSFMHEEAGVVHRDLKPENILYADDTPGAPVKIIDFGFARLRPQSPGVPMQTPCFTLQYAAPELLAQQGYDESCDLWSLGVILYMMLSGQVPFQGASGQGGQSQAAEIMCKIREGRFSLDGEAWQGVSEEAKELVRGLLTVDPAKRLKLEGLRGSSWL

LZK = target: T5, LZK (Homo sapiens, UniProt O43283); assay: KINOMEscan; details: read-out: % control activity remaining
T5 construct: purchased Eurofins DiscoverX KINOMEscan
T5 sequence (O43283 1-966): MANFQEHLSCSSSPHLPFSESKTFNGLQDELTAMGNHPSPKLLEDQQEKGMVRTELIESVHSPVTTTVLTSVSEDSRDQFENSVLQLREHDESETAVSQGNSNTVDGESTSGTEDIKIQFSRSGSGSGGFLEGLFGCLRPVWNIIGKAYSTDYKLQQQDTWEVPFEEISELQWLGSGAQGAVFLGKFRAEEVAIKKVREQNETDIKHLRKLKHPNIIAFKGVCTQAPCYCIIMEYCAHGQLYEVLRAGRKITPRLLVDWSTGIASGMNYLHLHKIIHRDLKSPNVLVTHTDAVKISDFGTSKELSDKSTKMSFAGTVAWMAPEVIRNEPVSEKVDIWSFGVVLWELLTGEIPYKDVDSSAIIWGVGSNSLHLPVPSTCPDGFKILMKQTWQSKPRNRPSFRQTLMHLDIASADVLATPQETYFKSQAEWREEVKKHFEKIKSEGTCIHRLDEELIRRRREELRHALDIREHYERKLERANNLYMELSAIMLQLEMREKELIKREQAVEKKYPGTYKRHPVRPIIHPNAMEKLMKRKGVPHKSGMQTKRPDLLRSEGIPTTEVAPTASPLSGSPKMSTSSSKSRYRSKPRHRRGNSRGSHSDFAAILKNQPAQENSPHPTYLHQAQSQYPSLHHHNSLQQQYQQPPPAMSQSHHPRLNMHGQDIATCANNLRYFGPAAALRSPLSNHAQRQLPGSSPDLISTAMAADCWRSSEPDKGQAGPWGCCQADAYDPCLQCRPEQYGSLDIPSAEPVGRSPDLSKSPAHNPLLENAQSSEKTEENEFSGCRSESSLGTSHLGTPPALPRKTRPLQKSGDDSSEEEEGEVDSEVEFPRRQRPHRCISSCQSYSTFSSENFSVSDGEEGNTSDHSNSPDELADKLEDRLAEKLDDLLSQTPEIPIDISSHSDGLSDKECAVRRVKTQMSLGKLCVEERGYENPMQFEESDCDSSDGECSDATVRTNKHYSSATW

GRK7 = target: T6, GRK7 (Homo sapiens, UniProt Q8WTQ7); assay: KINOMEscan; details: read-out: % control activity remaining
T6 construct: purchased Eurofins DiscoverX KINOMEscan
T6 sequence (Q8WTQ7 1-553): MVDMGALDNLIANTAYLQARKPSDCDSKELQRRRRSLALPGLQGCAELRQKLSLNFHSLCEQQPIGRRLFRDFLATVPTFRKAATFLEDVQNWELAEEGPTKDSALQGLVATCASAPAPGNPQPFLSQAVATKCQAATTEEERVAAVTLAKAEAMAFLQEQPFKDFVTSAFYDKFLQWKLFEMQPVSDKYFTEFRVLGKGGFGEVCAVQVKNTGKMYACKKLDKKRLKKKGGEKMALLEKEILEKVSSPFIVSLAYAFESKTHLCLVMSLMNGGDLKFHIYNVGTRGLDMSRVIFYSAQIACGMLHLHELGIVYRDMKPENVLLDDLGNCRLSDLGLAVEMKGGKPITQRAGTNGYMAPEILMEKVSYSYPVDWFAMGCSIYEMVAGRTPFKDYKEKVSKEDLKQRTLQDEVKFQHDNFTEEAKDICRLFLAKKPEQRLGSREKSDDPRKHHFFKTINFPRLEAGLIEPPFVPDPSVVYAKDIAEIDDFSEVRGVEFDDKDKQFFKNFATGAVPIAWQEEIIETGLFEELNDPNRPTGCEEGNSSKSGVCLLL

[2] = tested on: 455 wild-type and mutant human protein and lipid kinases; assay: KINOMEscan panel summary; details: 1 μM
DYRK1B = target: T7, DYRK1B (Homo sapiens, UniProt Q9Y463); assay: KINOMEscan; details: read-out: % control activity remaining
T7 construct: purchased Eurofins DiscoverX KINOMEscan
T7 sequence (Q9Y463 whole entry): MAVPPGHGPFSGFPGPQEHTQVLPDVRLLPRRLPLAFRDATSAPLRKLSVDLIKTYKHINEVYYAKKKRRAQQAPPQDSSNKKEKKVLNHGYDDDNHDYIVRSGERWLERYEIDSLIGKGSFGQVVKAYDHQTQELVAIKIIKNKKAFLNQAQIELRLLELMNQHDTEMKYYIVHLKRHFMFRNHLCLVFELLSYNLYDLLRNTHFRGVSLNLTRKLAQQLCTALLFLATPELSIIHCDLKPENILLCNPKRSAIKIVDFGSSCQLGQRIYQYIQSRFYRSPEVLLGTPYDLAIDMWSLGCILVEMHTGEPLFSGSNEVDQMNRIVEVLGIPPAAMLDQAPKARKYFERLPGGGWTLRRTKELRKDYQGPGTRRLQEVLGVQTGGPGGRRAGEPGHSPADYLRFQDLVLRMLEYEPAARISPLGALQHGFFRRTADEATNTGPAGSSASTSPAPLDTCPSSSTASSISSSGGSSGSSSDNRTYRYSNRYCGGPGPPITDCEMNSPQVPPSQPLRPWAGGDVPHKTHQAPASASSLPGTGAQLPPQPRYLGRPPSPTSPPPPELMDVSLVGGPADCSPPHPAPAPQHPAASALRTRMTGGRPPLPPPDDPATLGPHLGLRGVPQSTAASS

MLK3 = target: T8, MLK3 (Homo sapiens, UniProt Q16584); assay: KINOMEscan; details: read-out: % control activity remaining
T8 construct: purchased Eurofins DiscoverX KINOMEscan
T8 sequence (Q16584 whole entry): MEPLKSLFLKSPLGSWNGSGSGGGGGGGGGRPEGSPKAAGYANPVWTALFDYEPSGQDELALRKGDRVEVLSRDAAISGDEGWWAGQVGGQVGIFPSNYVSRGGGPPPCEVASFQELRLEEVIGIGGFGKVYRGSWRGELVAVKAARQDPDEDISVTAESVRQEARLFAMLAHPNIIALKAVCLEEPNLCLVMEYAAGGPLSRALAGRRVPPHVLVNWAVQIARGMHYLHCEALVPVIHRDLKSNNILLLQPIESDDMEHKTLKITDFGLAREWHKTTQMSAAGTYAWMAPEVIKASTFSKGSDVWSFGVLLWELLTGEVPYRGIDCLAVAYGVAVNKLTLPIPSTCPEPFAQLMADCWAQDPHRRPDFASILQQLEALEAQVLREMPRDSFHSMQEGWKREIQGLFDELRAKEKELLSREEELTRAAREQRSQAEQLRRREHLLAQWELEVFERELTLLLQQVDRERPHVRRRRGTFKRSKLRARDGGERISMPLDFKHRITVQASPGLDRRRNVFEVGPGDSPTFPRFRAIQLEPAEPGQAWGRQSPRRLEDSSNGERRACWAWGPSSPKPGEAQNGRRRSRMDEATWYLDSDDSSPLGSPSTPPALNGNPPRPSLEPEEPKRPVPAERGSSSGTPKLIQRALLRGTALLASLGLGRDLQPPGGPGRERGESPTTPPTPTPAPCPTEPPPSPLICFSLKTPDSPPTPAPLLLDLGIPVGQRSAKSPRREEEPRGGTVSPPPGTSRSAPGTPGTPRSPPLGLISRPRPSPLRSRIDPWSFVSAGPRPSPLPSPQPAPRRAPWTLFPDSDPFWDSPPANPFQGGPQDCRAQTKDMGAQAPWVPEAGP

PIM2 = target: T9, PIM2 (Homo sapiens, UniProt Q9P1W9); assay: KINOMEscan; details: read-out: % control activity remaining
T9 construct: purchased Eurofins DiscoverX KINOMEscan
T9 sequence (Q9P1W9 whole entry): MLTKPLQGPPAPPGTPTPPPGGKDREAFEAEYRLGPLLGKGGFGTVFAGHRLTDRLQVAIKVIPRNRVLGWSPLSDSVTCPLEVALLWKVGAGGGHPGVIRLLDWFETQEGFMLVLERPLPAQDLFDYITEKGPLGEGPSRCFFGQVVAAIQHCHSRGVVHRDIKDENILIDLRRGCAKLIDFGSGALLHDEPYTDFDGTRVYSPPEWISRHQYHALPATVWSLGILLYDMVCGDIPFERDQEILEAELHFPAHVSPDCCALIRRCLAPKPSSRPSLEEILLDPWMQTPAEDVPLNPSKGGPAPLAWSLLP

PIK3CA(H1047Y) = target: T10, PIK3CA(H1047Y) (Homo sapiens, UniProt P42336, H1047Y); assay: KINOMEscan; details: read-out: % control activity remaining
T10 construct: purchased Eurofins DiscoverX KINOMEscan
T10 sequence (P42336 whole entry H1047Y): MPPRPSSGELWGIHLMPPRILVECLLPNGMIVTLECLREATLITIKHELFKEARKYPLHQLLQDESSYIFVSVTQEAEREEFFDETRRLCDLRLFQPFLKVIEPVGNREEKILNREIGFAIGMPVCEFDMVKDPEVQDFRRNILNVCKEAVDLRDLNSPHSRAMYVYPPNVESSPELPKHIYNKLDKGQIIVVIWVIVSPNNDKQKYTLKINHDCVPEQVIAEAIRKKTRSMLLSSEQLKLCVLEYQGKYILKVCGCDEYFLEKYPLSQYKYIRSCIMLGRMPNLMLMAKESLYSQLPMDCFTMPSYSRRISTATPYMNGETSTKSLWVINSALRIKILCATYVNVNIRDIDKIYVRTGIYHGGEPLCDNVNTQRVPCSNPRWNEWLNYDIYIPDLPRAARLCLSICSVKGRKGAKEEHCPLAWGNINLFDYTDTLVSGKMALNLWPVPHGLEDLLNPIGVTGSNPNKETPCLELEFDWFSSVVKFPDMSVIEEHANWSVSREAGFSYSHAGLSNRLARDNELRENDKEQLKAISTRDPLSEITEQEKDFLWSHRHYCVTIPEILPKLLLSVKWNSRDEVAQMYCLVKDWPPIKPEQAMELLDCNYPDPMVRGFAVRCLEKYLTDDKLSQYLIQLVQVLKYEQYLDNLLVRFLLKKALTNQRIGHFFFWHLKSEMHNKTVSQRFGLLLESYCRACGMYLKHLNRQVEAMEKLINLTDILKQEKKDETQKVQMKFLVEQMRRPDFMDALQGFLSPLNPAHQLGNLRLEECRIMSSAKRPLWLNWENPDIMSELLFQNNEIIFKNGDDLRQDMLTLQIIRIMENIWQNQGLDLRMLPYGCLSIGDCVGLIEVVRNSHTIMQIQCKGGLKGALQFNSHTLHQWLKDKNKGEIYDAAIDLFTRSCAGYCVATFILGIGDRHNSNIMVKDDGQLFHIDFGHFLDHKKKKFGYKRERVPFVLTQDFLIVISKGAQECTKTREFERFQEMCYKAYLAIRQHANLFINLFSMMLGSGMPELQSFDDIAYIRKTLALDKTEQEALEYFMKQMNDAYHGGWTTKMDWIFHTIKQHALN

T1 sequence (Q9H2G2 whole entry, looked up): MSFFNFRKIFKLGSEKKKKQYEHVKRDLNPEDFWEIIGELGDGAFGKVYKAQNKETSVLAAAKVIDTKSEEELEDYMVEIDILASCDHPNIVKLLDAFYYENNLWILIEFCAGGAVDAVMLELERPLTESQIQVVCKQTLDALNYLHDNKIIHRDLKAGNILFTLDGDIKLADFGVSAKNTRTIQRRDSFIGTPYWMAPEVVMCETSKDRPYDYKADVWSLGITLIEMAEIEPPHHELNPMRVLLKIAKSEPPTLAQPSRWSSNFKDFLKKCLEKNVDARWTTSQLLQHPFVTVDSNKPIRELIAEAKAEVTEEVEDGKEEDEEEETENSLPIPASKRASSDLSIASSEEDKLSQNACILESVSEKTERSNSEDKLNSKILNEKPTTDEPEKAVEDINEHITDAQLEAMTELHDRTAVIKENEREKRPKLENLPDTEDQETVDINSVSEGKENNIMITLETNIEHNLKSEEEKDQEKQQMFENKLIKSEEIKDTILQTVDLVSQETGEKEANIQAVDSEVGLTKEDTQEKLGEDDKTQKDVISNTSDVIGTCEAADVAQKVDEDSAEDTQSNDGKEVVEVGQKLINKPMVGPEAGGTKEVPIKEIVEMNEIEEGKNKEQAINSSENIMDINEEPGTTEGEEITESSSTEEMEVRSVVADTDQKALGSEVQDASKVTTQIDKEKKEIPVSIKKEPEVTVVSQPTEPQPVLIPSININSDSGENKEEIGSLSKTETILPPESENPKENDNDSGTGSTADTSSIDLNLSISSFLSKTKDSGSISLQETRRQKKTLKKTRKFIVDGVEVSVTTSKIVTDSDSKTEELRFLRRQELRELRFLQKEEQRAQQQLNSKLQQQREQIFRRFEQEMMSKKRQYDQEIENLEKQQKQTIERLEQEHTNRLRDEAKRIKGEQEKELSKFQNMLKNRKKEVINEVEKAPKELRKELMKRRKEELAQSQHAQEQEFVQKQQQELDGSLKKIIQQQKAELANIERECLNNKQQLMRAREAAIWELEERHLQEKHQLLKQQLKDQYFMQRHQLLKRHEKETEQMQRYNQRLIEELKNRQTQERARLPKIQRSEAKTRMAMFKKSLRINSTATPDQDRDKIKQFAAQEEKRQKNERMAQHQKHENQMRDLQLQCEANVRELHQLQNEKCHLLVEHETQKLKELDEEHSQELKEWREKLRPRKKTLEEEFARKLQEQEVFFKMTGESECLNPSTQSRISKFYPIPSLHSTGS
T2 sequence (Q00536 whole entry): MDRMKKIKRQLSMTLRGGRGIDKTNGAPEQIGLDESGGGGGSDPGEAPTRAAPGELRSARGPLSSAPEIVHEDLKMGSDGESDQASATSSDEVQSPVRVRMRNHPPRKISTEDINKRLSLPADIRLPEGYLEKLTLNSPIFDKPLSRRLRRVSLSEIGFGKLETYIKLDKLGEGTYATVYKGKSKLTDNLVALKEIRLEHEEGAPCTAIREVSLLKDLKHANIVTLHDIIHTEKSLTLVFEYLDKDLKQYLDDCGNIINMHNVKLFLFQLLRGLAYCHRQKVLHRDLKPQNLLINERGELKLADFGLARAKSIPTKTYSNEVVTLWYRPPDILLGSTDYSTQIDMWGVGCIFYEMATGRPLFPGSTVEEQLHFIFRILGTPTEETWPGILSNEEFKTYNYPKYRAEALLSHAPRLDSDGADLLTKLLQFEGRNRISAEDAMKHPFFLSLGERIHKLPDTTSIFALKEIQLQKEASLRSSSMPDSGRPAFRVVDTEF

Compound	remaining binding at 1 µM (SLK)	remaining binding at 1 µM (PCTK1)	remaining binding at 1 µM (TBK1)	remaining binding at 1 µM [1]	remaining binding at 1 µM (LZK)	remaining binding at 1 µM (GRK7)	kinases with >70% inhibition / wild-type and mutant kinases tested [2]	remaining binding at 1 µM (DYRK1B)	remaining binding at 1 µM (MLK3)	remaining binding at 1 µM (PIM2)	remaining binding at 1 µM (PIK3CA(H1047Y))
Clc1cc(NCC2CC2)c2ncc(-c3ccc4[nH]ncc4c3)n2n1 [compound 2, 6-Chloro-N-(cyclopropylmethyl)-3-(1H-indazol-5-yl)imidazo[1,2-b]pyridazin-8-amine]	100%	97%	71%	87%	100%	97%	26/455	1%	100%	100%	89%
O=C(CN1CCOCC1)N[C@H]1CC[C@H](Nc2cc(Cl)nn3c(-c4ccc5[nH]ncc5c4)cnc23)CC1 [compound 26]	98%	87%	90%	81%	100%	63%	54/455	0.85%	100%	100%	82%
CN1CCC(CNc2cc(Cl)nn3c(-c4cc5nc(Nc6ccccc6)[nH]c5cc4F)cnc23)CC1 [compound 31, 6-Chloro-3-(6-fluoro-2-(phenylamino)-1H-benzo[d]imidazol-5-yl)-N-((1-methylpiperidin-4-yl)methyl)imidazo[1,2-b]pyridazin-8-amine]	80%	37%	76%	86%	98%	77%	4/455	63%	81%	100%	100%

— publication PMC6437697 (Journal of Medicinal Chemistry, 2019)
